Structures are written as SMILES. Some results are limits rather than exact numbers.

This is an account of results in ChEMBL document CHEMBL3301562, “MMV Box screening against Plasmodium falciparum protein kinases and aminoacyl tRNA synthetases”.

What all share (assay type): functional
Assay [1] has as its target T1, Cdk-related protein kinase 6 (Plasmodium falciparum, UniProt O77239).
T1 sequence (O77239 whole entry): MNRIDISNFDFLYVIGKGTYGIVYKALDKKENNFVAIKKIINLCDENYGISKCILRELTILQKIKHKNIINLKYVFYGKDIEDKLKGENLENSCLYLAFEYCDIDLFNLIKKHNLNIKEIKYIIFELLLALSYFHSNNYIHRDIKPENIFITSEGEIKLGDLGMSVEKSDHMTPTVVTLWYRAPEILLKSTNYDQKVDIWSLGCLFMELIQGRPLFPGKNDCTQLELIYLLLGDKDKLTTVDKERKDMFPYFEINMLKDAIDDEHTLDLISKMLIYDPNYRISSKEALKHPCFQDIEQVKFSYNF
The assay is described as follows: Final concentrations were 1.5 uM ATP, 5 mM MnCl2, and 15 ug/ml PK6 in a buffer of 100 mM Tris-HCl (pH 7.5). 50 ug/mL MBP was provided as the substrate; 10 uM staurosporine was used as a control inhibitor. Incubation time was 3 hours and 40 minutes.The catalytic activity of each kinase was considered proportional to ATP consumed, as determined from measurements of residual [ATP] with the luciferase-based reagent Kinase-Glo (Promega) following incubation. Luminescence (proportional to residual [ATP]) was measured on the plate readers FLx800 (BioTek Instruments, Winooski, VT, USA) and MicroBeta2. (Kinase-Glo reads ATP consumption through a luciferase reaction.)

The target of assay [2] is T2, Putative uncharacterized protein pk7 (Plasmodium falciparum, UniProt O96214).
T2 sequence (O96214 whole entry): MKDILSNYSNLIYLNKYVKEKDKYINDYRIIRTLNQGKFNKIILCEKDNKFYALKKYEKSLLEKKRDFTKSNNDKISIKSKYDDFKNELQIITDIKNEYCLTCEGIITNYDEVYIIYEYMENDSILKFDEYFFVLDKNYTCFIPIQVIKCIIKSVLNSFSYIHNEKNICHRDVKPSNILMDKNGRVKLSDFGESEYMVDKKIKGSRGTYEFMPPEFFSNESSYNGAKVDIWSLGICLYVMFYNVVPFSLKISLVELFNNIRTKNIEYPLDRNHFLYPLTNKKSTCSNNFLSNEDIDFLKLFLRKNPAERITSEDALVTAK
The assay is described as follows: Final concentrations were 1 uM ATP, 2 mM DTT, 20 mM MgCl2, 2 mM MnCl2, 0.01% BSA, and 6 ug/ml PK7, in a buffer of 20 mM Tris-HCl (pH 7.5). The enzyme itself was the only substrate present (since autophosphorylation occurs); 100 uM 1NA-PP1 was used as a control inhibitor. Incubation time was 3 hours.

Assay [3] deals with T3, Mitogen-activated protein kinase (Plasmodium falciparum, UniProt Q25917).
T3 sequence (Q25917 whole entry): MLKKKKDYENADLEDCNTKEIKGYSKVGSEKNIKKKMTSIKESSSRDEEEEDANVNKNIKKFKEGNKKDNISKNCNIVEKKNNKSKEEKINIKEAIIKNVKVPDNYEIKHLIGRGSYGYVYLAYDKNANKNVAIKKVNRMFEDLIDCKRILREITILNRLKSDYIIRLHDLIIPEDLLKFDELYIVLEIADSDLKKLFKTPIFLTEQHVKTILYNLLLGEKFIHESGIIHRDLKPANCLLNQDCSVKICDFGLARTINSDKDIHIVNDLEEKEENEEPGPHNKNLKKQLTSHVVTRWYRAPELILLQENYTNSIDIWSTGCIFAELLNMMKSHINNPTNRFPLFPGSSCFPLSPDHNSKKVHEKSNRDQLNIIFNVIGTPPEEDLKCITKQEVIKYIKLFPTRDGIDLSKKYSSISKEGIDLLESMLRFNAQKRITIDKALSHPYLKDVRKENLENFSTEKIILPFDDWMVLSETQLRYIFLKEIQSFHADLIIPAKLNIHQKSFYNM
The assay is described as follows: Final concentrations were 1 uM ATP, 0.5 mM DTT, 1 mM MgCl2, 0.5 mg/mL BSA, and 10 ug/ml MAP2 in a buffer of 50 mM HEPES (pH 7.0). 0.5 mg/mL histone III-S served as the substrate (13); 100 uM AMP-PNP, an ATP analog, was used as a control inhibitor. Incubation time was 4 hours.

Assay [4] concerns the target Calcium-dependent protein kinase 1 (Plasmodium falciparum, UniProt P62344). The assay is described as follows: MMV: CDPK1 Protein kinase inhibition assay using recombinant PfCDPK1, syntide 2 peptide substrate, ATP and KinaseGlo to measure % inhibition at 1 uM MMV box compound.
Assay [5] deals with T4, Calcium-dependent protein kinase 4 (Plasmodium falciparum (isolate 3D7), UniProt Q8IBS5).
T4 sequence (Q8IBS5 whole entry): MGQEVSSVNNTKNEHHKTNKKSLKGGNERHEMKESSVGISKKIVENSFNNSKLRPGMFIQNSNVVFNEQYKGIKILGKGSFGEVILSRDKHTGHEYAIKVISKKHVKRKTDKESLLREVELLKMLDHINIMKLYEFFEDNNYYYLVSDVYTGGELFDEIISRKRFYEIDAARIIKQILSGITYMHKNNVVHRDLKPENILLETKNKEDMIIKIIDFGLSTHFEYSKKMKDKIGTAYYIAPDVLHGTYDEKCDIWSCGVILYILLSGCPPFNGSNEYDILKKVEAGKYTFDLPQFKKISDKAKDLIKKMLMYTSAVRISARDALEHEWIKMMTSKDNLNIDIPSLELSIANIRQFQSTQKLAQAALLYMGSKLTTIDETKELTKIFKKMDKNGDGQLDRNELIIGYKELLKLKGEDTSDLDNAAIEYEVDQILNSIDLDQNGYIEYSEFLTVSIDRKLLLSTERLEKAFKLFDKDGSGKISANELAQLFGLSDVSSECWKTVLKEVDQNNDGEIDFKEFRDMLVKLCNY
The assay is described as follows: MMV: CDPK4 Protein kinase inhibition assay using recombinant PfCDPK4, syntide2 peptide substrate, ATP and KinaseGlo to measure % inhibition at 1 uM MMV box compound.

A further assay concerns the target T5, Proline--tRNA ligase (Plasmodium falciparum (isolate 3D7), UniProt Q8I5R7).
T5 sequence (Q8I5R7 whole entry): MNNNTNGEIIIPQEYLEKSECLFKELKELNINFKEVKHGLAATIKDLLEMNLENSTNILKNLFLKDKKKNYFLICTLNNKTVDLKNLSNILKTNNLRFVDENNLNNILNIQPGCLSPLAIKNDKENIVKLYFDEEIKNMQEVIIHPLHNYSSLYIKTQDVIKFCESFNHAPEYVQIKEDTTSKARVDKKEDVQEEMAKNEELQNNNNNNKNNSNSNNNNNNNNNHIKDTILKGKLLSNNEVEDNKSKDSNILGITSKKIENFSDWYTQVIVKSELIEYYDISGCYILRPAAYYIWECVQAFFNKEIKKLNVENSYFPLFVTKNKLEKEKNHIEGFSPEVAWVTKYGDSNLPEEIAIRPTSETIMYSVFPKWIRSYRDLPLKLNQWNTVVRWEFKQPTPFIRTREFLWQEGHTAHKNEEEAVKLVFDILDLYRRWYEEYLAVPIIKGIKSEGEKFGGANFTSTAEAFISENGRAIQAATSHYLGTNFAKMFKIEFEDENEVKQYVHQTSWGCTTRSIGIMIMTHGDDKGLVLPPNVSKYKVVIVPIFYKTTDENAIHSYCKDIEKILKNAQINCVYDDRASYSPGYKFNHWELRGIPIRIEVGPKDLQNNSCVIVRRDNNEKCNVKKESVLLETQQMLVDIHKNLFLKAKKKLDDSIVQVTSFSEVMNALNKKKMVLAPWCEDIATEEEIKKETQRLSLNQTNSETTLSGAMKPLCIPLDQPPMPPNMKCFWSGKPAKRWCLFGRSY
The assay is described as follows: MMV: ProRS recombinant Plasmodium falciparum Prolyl-tRNA-synthetase, assay with yeast tRNA, ATP, and proline and 3 uM MMV malaria box compound, assay read out with kinase glo as % inhibition.

For the next assay, the target named is Lysine--tRNA ligase (Plasmodium falciparum (isolate 3D7), UniProt Q8IDJ8). The assay is described as follows: MMV: KRS recombinant Plasmodium falciparum Lysyl-tRNA-synthetase, assay with yeast tRNA, ATP, and lysine and 3 uM MMV malaria box compound, assay read out with kinase glo as % inhibition.
Chain of Lysine--tRNA ligase (Q8IDJ8 whole entry): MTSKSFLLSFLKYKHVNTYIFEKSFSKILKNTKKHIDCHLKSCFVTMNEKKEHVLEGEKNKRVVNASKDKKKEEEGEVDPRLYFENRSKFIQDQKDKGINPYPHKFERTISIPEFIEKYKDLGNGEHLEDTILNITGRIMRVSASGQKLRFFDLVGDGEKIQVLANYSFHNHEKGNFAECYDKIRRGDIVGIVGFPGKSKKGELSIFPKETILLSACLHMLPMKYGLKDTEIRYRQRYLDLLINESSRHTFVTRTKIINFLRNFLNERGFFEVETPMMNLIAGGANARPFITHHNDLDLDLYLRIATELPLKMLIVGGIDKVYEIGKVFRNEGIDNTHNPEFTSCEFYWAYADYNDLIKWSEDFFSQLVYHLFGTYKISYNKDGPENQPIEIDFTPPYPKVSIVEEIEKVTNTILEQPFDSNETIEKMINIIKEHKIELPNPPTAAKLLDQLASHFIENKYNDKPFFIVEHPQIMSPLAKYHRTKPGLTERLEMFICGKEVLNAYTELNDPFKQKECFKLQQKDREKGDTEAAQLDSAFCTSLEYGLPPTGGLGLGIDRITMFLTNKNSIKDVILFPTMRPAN

Chain of Calcium-dependent protein kinase 1 (P62344 whole entry): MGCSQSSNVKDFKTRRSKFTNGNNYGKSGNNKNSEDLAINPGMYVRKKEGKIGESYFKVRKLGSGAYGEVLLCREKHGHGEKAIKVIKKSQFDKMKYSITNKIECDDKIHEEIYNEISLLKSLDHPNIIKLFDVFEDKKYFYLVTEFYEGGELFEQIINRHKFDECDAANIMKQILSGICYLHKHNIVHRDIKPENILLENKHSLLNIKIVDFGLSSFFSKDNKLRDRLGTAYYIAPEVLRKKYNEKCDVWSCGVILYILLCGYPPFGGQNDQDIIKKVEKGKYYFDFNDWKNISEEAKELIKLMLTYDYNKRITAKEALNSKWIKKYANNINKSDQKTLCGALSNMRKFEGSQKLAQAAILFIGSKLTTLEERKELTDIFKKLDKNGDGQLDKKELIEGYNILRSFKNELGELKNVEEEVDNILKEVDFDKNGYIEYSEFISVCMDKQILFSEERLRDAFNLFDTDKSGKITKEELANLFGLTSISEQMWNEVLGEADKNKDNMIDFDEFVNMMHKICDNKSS

For orientation: IC50 means the concentration at which inhibition is half-maximal. Consider `CCN(CC)CCNc1ncnc2c1[nH]c1ccc(Cl)cc12`, for which the 50% inhibitory concentration (IC50) in assay [1] is more than 1 µM; in assay [2] it was more than 1 µM; in assay [3] it was more than 1 µM; in assay [4], more than 1 µM; in assay [5] it was more than 1 µM; on Proline--tRNA ligase it was more than 2.5 µM. For the same molecule, the half-maximal inhibitory concentration (IC50) at Lysine--tRNA ligase was more than 2.5 µM.
As for `CCOC(=O)c1cnc2ccc(CC)cc2c1O`, the IC50 was more than 1 µM in assay [1]; more than 1 µM in assay [2]; more than 1 µM in assay [3]; more than 1 µM in assay [4]; more than 1 µM in assay [5]; more than 2.5 µM on Proline--tRNA ligase. Moreover, the concentration for half-maximal inhibition (IC50) on Lysine--tRNA ligase was more than 2.5 µM.
For the molecule `COc1ccc(-n2ccnc2SCC(=O)Nc2cc(C)ccc2C)c(OC)c1`, the IC50 is more than 1 µM in assay [1]; more than 1 µM in assay [2]; more than 1 µM in assay [3]; more than 1 µM in assay [4]; more than 1 µM in assay [5]; more than 2.5 µM at Proline--tRNA ligase. Further, the IC50 at Lysine--tRNA ligase is more than 2.5 µM.
With `CCN1CCN(Cc2ccc(NC(=O)c3cc4ccc5cccnc5c4[nH]3)cc2)CC1`, the half-maximal inhibitory concentration (IC50) in assay [1] was more than 1 µM; in assay [2], more than 1 µM; in assay [3], more than 1 µM; in assay [4] it was more than 1 µM; in assay [5], more than 1 µM; on Proline--tRNA ligase, more than 2.5 µM. Also, at Lysine--tRNA ligase, the half-maximal inhibitory concentration (IC50) was more than 2.5 µM.
As for `CCOc1cc2c(cc1OCC)C(c1cc(OC)c(O)cc1Cl)NCC2` (stereo not given), the IC50 in assay [1] is more than 1 µM; in assay [2] it was more than 1 µM; in assay [3] it was more than 1 µM; in assay [4], more than 1 µM; in assay [5], more than 1 µM; at Proline--tRNA ligase, more than 2.5 µM. Besides, at Lysine--tRNA ligase, the half-maximal inhibitory concentration (IC50) was more than 2.5 µM.
Regarding `COc1cccc(C=Cc2nc(=O)c3ccccc3o2)c1OC`, the IC50 in assay [1] is more than 1 µM; in assay [2] it was more than 1 µM; in assay [3], more than 1 µM; in assay [4], more than 1 µM; in assay [5] it was more than 1 µM; on Proline--tRNA ligase, more than 2.5 µM. Also, on Lysine--tRNA ligase, the IC50 is more than 2.5 µM.
As to `Cc1ccc(-c2cc3nc4c(c(O)n3n2)CCCC4)cc1`, the 50% inhibitory concentration (IC50) was more than 1 µM in assay [1]; more than 1 µM in assay [2]; more than 1 µM in assay [3]; more than 1 µM in assay [4]; more than 1 µM in assay [5]; more than 2.5 µM at Proline--tRNA ligase. On Lysine--tRNA ligase, the half-maximal inhibitory concentration (IC50) was more than 2.5 µM.
`COc1ccccc1NC1=C(N2CCCCC2)C(=O)c2ccccc2C1=O`: the IC50 in assay [1] is more than 1 µM; in assay [2] it was more than 1 µM; in assay [3] it was more than 1 µM; in assay [4], more than 1 µM; in assay [5], more than 1 µM; on Proline--tRNA ligase, more than 2.5 µM. Besides, the half-maximal inhibitory concentration (IC50) on Lysine--tRNA ligase was more than 2.5 µM.
For `CCOC(=O)c1cn(CC)c2cc(N3CCCCC3)c(F)cc2c1=O`, the concentration for half-maximal inhibition (IC50) was more than 1 µM in assay [1]; more than 1 µM in assay [2]; more than 1 µM in assay [3]; more than 1 µM in assay [4]; more than 1 µM in assay [5]; more than 2.5 µM at Proline--tRNA ligase. Besides, the IC50 at Lysine--tRNA ligase is more than 2.5 µM.
`CCCc1cc(O)c2c3c(c(=O)oc2c1)CN(C)CC3`: the half-maximal inhibitory concentration (IC50) was more than 1 µM in assay [1]; more than 1 µM in assay [2]; more than 1 µM in assay [3]; more than 1 µM in assay [4]; more than 1 µM in assay [5]; more than 2.5 µM at Proline--tRNA ligase. For the same molecule, the half-maximal inhibitory concentration (IC50) at Lysine--tRNA ligase was more than 2.5 µM.
`Cc1cc(NC(=O)C2c3ccccc3C(=O)N(CC(C)C)C2c2cccs2)no1` (stereo not given): the half-inhibitory concentration (IC50) was more than 1 µM in assay [1]; more than 1 µM in assay [2]; more than 1 µM in assay [3]; more than 1 µM in assay [4]; more than 1 µM in assay [5]; more than 2.5 µM at Proline--tRNA ligase. The IC50 at Lysine--tRNA ligase is more than 2.5 µM.
With `COc1ccc2c(=O)cc(C(Cl)(Cl)Cl)oc2c1`, the half-inhibitory concentration (IC50) was more than 1 µM in assay [1]; more than 1 µM in assay [2]; more than 1 µM in assay [3]; more than 1 µM in assay [4]; more than 1 µM in assay [5]; more than 2.5 µM on Proline--tRNA ligase. Further, the IC50 on Lysine--tRNA ligase is more than 2.5 µM.
As to `COc1ccc(-c2nc3cc(Cc4ccc5[nH]c(-c6ccc(OC)cc6)nc5c4)ccc3[nH]2)cc1`, the IC50 is more than 1 µM in assay [1]; more than 1 µM in assay [2]; more than 1 µM in assay [3]; more than 1 µM in assay [4]; more than 1 µM in assay [5]; more than 2.5 µM at Proline--tRNA ligase. The IC50 at Lysine--tRNA ligase is more than 2.5 µM.
Take `Cc1cc(Nc2ccc(Cl)cc2)n2nc(C(F)(F)F)nc2n1`: the half-inhibitory concentration (IC50) in assay [1] is more than 1 µM; in assay [2], more than 1 µM; in assay [3], more than 1 µM; in assay [4], more than 1 µM; in assay [5] it was more than 1 µM; at Proline--tRNA ligase, more than 2.5 µM. The concentration for half-maximal inhibition (IC50) on Lysine--tRNA ligase is more than 2.5 µM.
Turning to `CCCCCCOC(=O)C1=C(C)NC(=O)NC1c1ccccc1F` (stereo not given), the half-inhibitory concentration (IC50) was more than 1 µM in assay [1]; more than 1 µM in assay [2]; more than 1 µM in assay [3]; more than 1 µM in assay [4]; more than 1 µM in assay [5]; more than 2.5 µM on Proline--tRNA ligase. On Lysine--tRNA ligase, the 50% inhibitory concentration (IC50) was more than 2.5 µM.
